The values that follow come from US8716292B2, “Riminophenazines with 2-(heteroaryl)amino substituents and their anti-microbial activity” (priority 2010, dated 2014).

≈ marks a conversion by molar mass, not a printed value.

In one assay the test system is Mycobacterium tuberculosis H37Rv strains. The experiment in a line: In vitro assay for antimicrobial susceptibility (microplate Alamar blue MIC). The format is cell-based. The following applies: Mycobacterium tuberculosis, H37RV, 7H9, Alamar blue, inhibition ≧90%; read-out: MIC (μg/mL) against H37Rv. On the technique in general: Alamar Blue is a resazurin reagent that responds to reducing activity.
`CC(C)/N=c1\cc2n(-c3ccc(OC(F)(F)F)cc3)c3ccccc3nc-2cc1Nc1ncccn1` [TBI-951, 5-(4-Trifluoromethoxyphenyl)-3-(1-methylethyl)imino-2-(pyrimidin-2-yl)amino-3,5-dihydrophenazine]: the MIC worked out at 0.019 µg/mL (≈ 0.0387 µM).

The same assay, now with this note: Mycobacterium tuberculosis, H37RV, in vitro, Mycobacterium tuberculosis H37Rv strains; read-out: MIC (μg/mL) against H37Rv.
As for `COC1CCC(/N=c2\cc3n(-c4ccccc4)c4ccccc4nc-3cc2Nc2cncc(C)c2)CC1` (centres unmarked) [TBI-084, 5-Phenyl-3-(4-methoxycyclohexyl)imino-2-(5-methyl-3-pyridyl)amino-3,5-dihydrophenazine], the MIC was found to be 0.059 µg/mL (≈ 0.121 µM).

On to `Clc1ccc(-n2c3c/c(=N\C4CCOCC4)c(Nc4cccnc4)cc-3nc3ccccc32)cc1Cl` [TBI-351, 5-(3,4-Dichlorophenyl)-3-(4-tetrahydropyranyl)imino-2-(3-pyridyl)amino-3,5-dihydrophenazine], for which the MIC was 0.079 µg/mL (≈ 0.153 µM).

Take `Cc1ncccc1Nc1cc2nc3ccccc3n(-c3ccccc3)c-2c/c1=N\C1CCOCC1` [TBI-075, 5-Phenyl-3-(4-tetrahydropyranyl)imino-2-(2-methyl-3-pyridyl)amino-3,5-dihydrophenazine]: the MIC is 0.328 µg/mL (≈ 0.711 µM).

Consider `CC(=O)Nc1ccc(Nc2cc3nc4ccccc4n(-c4ccc(C(F)(F)F)cc4)c-3c/c2=N\C2CCOCC2)cn1` [TBI-712, 5-(4-Trifluoromethylphenyl)-3-(4-tetrahydropyranyl)imino-2-(6-acetamino-3-pyridyl)amino-3,5-dihydrophenazine], for which the MIC came to 0.158 µg/mL (≈ 0.276 µM).

For the molecule `CC(C)CN1CCC(/N=c2\cc3n(-c4ccc(F)cc4)c4ccccc4nc-3cc2Nc2cccnc2)CC1` [TBI-683, 5-(4-Fluorophenyl)-3-(N-isobutyl-4-piperidyl)imino-2-(3-pyridyl)amino-3,5-dihydrophenazine], the MIC amounted to 0.125 µg/mL (≈ 0.24 µM).

Turning to `Cc1ccc(Nc2cc3nc4ccccc4n(-c4ccc(Br)cc4)c-3c/c2=N\C2CCCCC2)cn1` [TBI-502, 5-(4-Bromophenyl)-3-cyclohexylimino-2-(6-methyl-3-pyridyl)amino-3,5-dihydrophenazine], the MIC turned out to be 0.217 µg/mL (≈ 0.403 µM).

With `Cc1ccc(Nc2cc3nc4ccccc4n(-c4ccc(F)cc4)c-3c/c2=N\C2CCN(CC(C)C)CC2)cn1` [TBI-904, 5-(4-Fluorophenyl)-3-(N-isobutyl-4-piperidyl)imino-2-(6-methyl-3-pyridyl)amino-3,5-dihydrophenazine], the MIC was found to be 0.016 µg/mL (≈ 0.0299 µM).

Turning to `Cc1ncccc1Nc1cc2nc3ccccc3n(-c3ccc(F)cc3)c-2c/c1=N\C1CCOCC1` [TBI-1012, 5-(4-Fluorophenyl)-3-(4-tetrahydropyranyl)imino-2-(2-methyl-3-pyridyl)amino-3,5-dihydrophenazine], the MIC was determined as 0.026 µg/mL (≈ 0.0542 µM).

Take `FC(F)(F)c1ccc(-n2c3c/c(=N\C4CCN(C5CCCC5)CC4)c(Nc4cccnc4)cc-3nc3ccccc32)cc1` [TBI-691, 5-(4-Trifluoromethylphenyl)-3-(N-cyclopentyl-4-piperidyl)imino-2-(3-pyridyl)amino-3,5-dihydrophenazine]: the MIC came out at 0.06 µg/mL (≈ 0.103 µM).

Consider `COC1CCC(/N=c2\cc3n(-c4ccc(Cl)c(Cl)c4)c4ccccc4nc-3cc2Nc2ccc(C)nc2)CC1` (centres unmarked) [TBI-355, 5-(3,4-Dichlorophenyl)-3-(4-methoxycyclohexyl)imino-2-(6-methyl-3-pyridyl)amino-3,5-dihydrophenazine], for which the MIC is 0.09 µg/mL (≈ 0.161 µM).

`CC(C)/N=c1\cc2n(-c3ccccc3C(F)(F)F)c3ccccc3nc-2cc1Nc1cccnc1` [TBI-720, 5-(2-Trifluoromethylphenyl)-3-(1-methylethyl)imino-2-(3-pyridyl)amino-3,5-dihydrophenazine]: the MIC was found to be 0.214 µg/mL (≈ 0.452 µM).

On to `COc1ncccc1Nc1cc2nc3ccccc3n(-c3ccc(C(F)(F)F)cc3)c-2c/c1=N\C1CCN(C)CC1` [TBI-703, 5-(4-Trifluoromethylphenyl)-3-(N-methyl-4-piperidyl)imino-2-(2-methoxy-3-pyridyl)amino-3,5-dihydrophenazine], for which the MIC is 0.02 µg/mL (≈ 0.0358 µM).

As to `Cc1ccc(-n2c3c/c(=N\C4CCN(CC(C)C)CC4)c(Nc4ccc(C)nc4)cc-3nc3ccccc32)cc1` [TBI-320, 5-(4-Methylphenyl)-3-(N-isobutyl-4-piperidyl)imino-2-(6-methyl-3-pyridyl)amino-3,5-dihydrophenazine], the MIC amounted to 0.11 µg/mL (≈ 0.207 µM).

Turning to `Cc1ccc(-n2c3c/c(=N\C4CCC(O)CC4)c(Nc4ccc(C)nc4)cc-3nc3ccccc32)cc1` (centres unmarked) [TBI-334, 5-(4-Methylphenyl)-3-(4-hydroxycyclohexyl)imino-2-(6-methyl-3-pyridyl)amino-3,5-dihydrophenazine], the MIC turned out to be 0.372 µg/mL (≈ 0.76 µM).

For the molecule `COc1ncccc1Nc1cc2nc3ccccc3n(-c3cccc(Cl)c3)c-2c/c1=N\C1CCOCC1` [TBI-822, 5-(3-Chlorophenyl)-3-(4-tetrahydropyranyl)imino-2-(2-methoxy-3-pyridyl)amino-3,5-dihydrophenazine], the MIC came out at 0.125 µg/mL (≈ 0.244 µM).

Consider `COC1CCC(/N=c2\cc3n(-c4ccc(C(F)(F)F)cc4)c4ccccc4nc-3cc2Nc2ccc(C)nc2)CC1` (centres unmarked) [TBI-695, 5-(4-Trifluoromethylphenyl)-3-(4-methoxycyclohexyl)imino-2-(6-methyl-3-pyridyl)amino-3,5-dihydrophenazine], for which the MIC amounted to 0.016 µg/mL (≈ 0.0287 µM).

Take `COc1ncccc1Nc1cc2nc3ccccc3n(-c3ccc(C(F)(F)F)cc3)c-2c/c1=N\C1CCC(OC)CC1` (centres unmarked) [TBI-700, 5-(4-Trifluoromethylphenyl)-3-(4-methoxycyclohexyl)imino-2-(2-methoxy-3-pyridyl)amino-3,5-dihydrophenazine]: the MIC turned out to be 0.016 µg/mL (≈ 0.0279 µM).

As to `Cc1ccc(Nc2cc3nc4ccccc4n(-c4ccc(Cl)cc4)c-3c/c2=N\C(C)C)cn1` [TBI-441], the MIC is 0.06 µg/mL (≈ 0.132 µM).

In the case of `COC1CCC(/N=c2\cc3n(-c4ccc(C)cc4)c4ccccc4nc-3cc2Nc2cccnc2)CC1` (centres unmarked) [TBI-301, 5-(4-Methylphenyl)-3-(4-methoxycyclohexyl)imino-2-(3-pyridyl)amino-3,5-dihydrophenazine], the MIC turned out to be 0.06 µg/mL (≈ 0.123 µM).

With `COCC(C/N=c1\cc2n(-c3ccc(F)cc3)c3ccccc3nc-2cc1Nc1cccnc1OC)OC` (centres unmarked) [TBI-1049, 5-(4-Fluorophenyl)-3-(2,3-dimethoxy-1-propyl)imino-2-(2-methoxy-3-pyridyl)amino-3,5-dihydrophenazine], the MIC stood at 0.162 µg/mL (≈ 0.315 µM).

For `Clc1ccc(-n2c3c/c(=N\C4CC4)c(Nc4cncc(Br)c4)cc-3nc3ccccc32)cc1` [TBI-882, 5-(4-Chlorophenyl)-3-cyclopropylimino-2-(5-bromo-3-pyridyl)amino-3,5-dihydrophenazine], the MIC amounted to 0.015 µg/mL (≈ 0.029 µM).

Turning to `COc1ccc(Nc2cc3nc4ccccc4n(-c4ccc(C)cc4)c-3c/c2=N\C2CCCCC2)cn1` [TBI-357, 5-(4-Methylphenyl)-3-cyclohexylimino-2-(6-methoxy-3-pyridyl)amino-3,5-dihydrophenazine], the MIC is 0.228 µg/mL (≈ 0.466 µM).

Turning to `COc1ccc2nc3cc(Nc4cccnc4OC)/c(=N/C4CCOCC4)cc-3n(-c3ccc(Cl)cc3)c2c1` [TBI-942, 7-Methoxy-5-(4-chlorophenyl)-3-(4-tetrahydropyranyl)imino-2-(2-methoxy-3-pyridyl)amino-3,5-dihydrophenazine], the MIC is 0.125 µg/mL (≈ 0.231 µM).

Turning to `Fc1ccc(-n2c3c/c(=N\C4CC4)c(Nc4cccnc4)cc-3nc3ccccc32)cc1` [TBI-922, 5-(4-Fluorophenyl)-3-cyclopropylimino-2-(3-pyridyl)amino-3,5-dihydrophenazine], the MIC was determined as 0.012 µg/mL (≈ 0.0285 µM).

In the case of `Cc1ncccc1Nc1cc2nc3ccccc3n(-c3ccc(F)cc3)c-2c/c1=N\C1CCC1` [TBI-1018, 5-(4-Fluorophenyl)-3-cyclobutylimino-2-(2-methyl-3-pyridyl)amino-3,5-dihydrophenazine], the MIC was found to be 0.028 µg/mL (≈ 0.0623 µM).

On to `COc1ncccc1Nc1cc2nc3ccccc3n(-c3ccccc3)c-2c/c1=N\C1CC1` [TBI-097, 5-Phenyl-3-cyclopropylimino-2-(2-methoxy-3-pyridyl)amino-3,5-dihydrophenazine], for which the MIC is 0.032 µg/mL (≈ 0.0738 µM).

In the case of `Cc1ccc(-n2c3c/c(=N\C4CCC(O)CC4)c(Nc4cccnc4)cc-3nc3ccccc32)cc1` (centres unmarked) [TBI-338, 5-(4-Methylphenyl)-3-(4-hydroxycyclohexyl)imino-2-(3-pyridyl)amino-3,5-dihydrophenazine], the MIC was determined as 0.5 µg/mL (≈ 1.05 µM).

`COc1ccc2nc3cc(Nc4cccnc4OC)/c(=N/C(C)C)cc-3n(-c3ccc(Cl)cc3)c2c1` [TBI-939, 7-Methoxy-5-(4-chlorophenyl)-3-(1-methylethyl)imino-2-(2-methoxy-3-pyridyl)amino-3,5-dihydrophenazine]: the MIC worked out at 0.125 µg/mL (≈ 0.25 µM).

Turning to `Fc1ccc(-n2c3c/c(=N\C4CCCCC4)c(Nc4cccnc4)cc-3nc3ccccc32)cc1` [TBI-920, 5-(4-Fluorophenyl)-3-cyclohexylimino-2-(3-pyridyl)amino-3,5-dihydrophenazine], the MIC was 0.029 µg/mL (≈ 0.0626 µM).

For the molecule `COCC(COC)/N=c1\cc2n(-c3ccc(Cl)cc3)c3ccccc3nc-2cc1Nc1cccnc1OC` [TBI-871, 5-(4-Chlorophenyl)-3-(1,3-dimethoxyisopropyl)imino-2-(2-methoxy-3-pyridyl)amino-3,5-dihydrophenazine], the MIC is 0.03 µg/mL (≈ 0.0566 µM).

Regarding `COc1ncccc1Nc1cc2nc3cc(C#N)ccc3n(-c3ccc(F)cc3)c-2c/c1=N\C1CCC(OC)CC1` (centres unmarked) [TBI-1065, 8-Cyano-5-(4-fluorophenyl)-3-(4-methyoxycyclohexyl)imino-2-(2-methoxy-3-pyridyl)amino-3,5-dihydrophenazine], the MIC was over 16 µg/mL.

Consider `COc1ccc2nc3cc(Nc4ccc(C)nc4)/c(=N/C4CCCCC4)cc-3n(-c3ccc(Cl)cc3)c2c1` [TBI-869, 7-Methoxy-5-(4-chlorophenyl)-3-cyclohexylimino-2-(6-methyl-3-pyridyl)amino-3,5-dihydrophenazine], for which the MIC was found to be 0.056 µg/mL (≈ 0.107 µM).

For the molecule `COc1ncccc1Nc1cc2nc3ccccc3n(-c3ccccc3)c-2c/c1=N\C1CCC(O)CC1` (centres unmarked) [TBI-087, 5-Phenyl-3-(4-hydroxycyclohexyl)imino-2-(2-methoxy-3-pyridyl)amino-3,5-dihydrophenazine], the MIC is 0.466 µg/mL (≈ 0.948 µM).

Staying with this assay, now noted: in vitro, Mycobacterium tuberculosis H37Rv strains.
As for `COc1ncccc1Nc1cc2nc3ccccc3n(-c3ccc(F)c(F)c3)c-2c/c1=N\C1CCOCC1` [TBI-1428, 5-(3,4-Difluorophenyl)-3-(4-tetrahydropyranyl)imino-2-(2-methoxy-3-pyridyl)amino-3,5-dihydrophenazine], the “MIC (μg/mL) against H37Rv” value is 0.054 µg/mL (≈ 0.105 µM).
